One assay relates to spleen T cells. As to the kind of experiment: Cytokine secretion by anti-CD3/CD28-activated T cells (Cytometric Bead Array). As to conditions: 30 μM. The class given is cell-based, C57BL/6 mice. On the procedure:
To confirm the effect of compounds of the present invention on the secretion of cytokines by T cells, the following experiment was conducted.
Spleens were harvested and minced from C57BL/6 mice at 7 weeks of age, and single cells were isolated using a strainer (40 μm pore size, SPL). Red blood cells were removed using ACK (Ammonium-Chloride-Potassium) lysis buffer to isolate only leukocytes. These were then reacted with 10 v/v % CD90.2 microbeads (130-121-278, Miltenyi Biotech.) at 4° C. for 20 minutes, resulting in the isolation of spleen T cells from magnetic-based purification. The T cells were cultured in a 96-well plate at an amount of 2×10^5 cells/well. For T cell activation, each well was treated with anti-CD3/CD28 antibodies at a concentration of 1 μg/mL. Subsequently, Vehicle (DMSO) and compounds (Compound 14, Compound 19, Compound 26, Compound 31, Compound 35, Compound 40, Compound 41, Compound 56, Compound 69, Compound 75) at a concentration of 30 μM were treated in each well, and it was cultured at 37° C. in a 5% CO2 incubator. After 24 and 72 hours, the T cell culture medium was taken, and centrifugation was performed at 13,000 rpm for 10 minutes to obtain the supernatant.
To measure the concentration of cytokines present in the T cell culture medium, Mouse Th1/Th2/Th17 Cytokine CBA Kit (Cytometric Bead Array kit) 560485 from BD Science was utilized for flow cytometry analysis. The secretion levels of IL-2 at 24 hours after each drug treatment, and IFN-γ, TNF-α, and IL-17A at 72 hours were measured after each drug treatment.

Assay [1] concerns psoriasis mouse animal model. As to the kind of experiment: Psoriasis mouse animal model (imiquimod-induced). The class given is in vivo, BALB/c mice. The following applies: 40 mg/kg intraperitoneally twice a day. From the text: To confirm the therapeutic effect of compounds according to the present invention on psoriasis, a psoriasis animal model was established to evaluate the alleviation of skin lesions and changes in immune cell profiles by administering Compound 69 or Compound 83 via injection.
To establish a psoriasis mouse animal model, BALB/c mice (7 weeks old, 20 g, female) were purchased from Hana Biotech Co. and allowed to acclimate to the housing environment for one week. Afterward, the fur on the dorsal area of the mice was initially shaved using a shaver, followed by complete removal with depilatory cream (Nicrin Cream, comprising thioglycolic acid 80%, manufactured by ILDONG Pharmaceutical CO., LTD). The mice were then housed for 24 hours to confirm any wounds on their backs.
Subsequently, in order to verify the preventive and therapeutic effects of compounds according to the present invention on psoriasis, five experimental groups were established as shown in FIG. 7 and Table 5. From the second to the fifth group, Aldara® cream was applied once daily for two weeks (14 days, total of 14 applications) at a dose of 80 mg (imiquimod, 4 mg) per mouse to induce psoriasis. Furthermore, to compare the preventive and therapeutic effects of compounds according to the present invention (Compound 69 and Compound 83) on psoriasis, 40 mg/kg of the compound per mouse was dissolved in DMSO corresponding to 10% of the dosing volume, and then diluted in a mixture of Cremophor EL-PEG 400-distilled water to achieve a final ratio of DMSO: Cremophor EL:PEG 400:distilled water to 1:1:4:4 (v/v/v/v). Subsequently, the respective injections were intraperitoneally administered at a dose of 100 μL per mouse, twice a day with a 12-hour interval. For the Vehicle control group, injections excluding the drug but comprising the vehicle solution (DMSO: Cremophor EL:PEG 400:distilled water=1:1:4:4 (v/v/v/v)) were administered at a dose of 100 μL per mouse, twice a day with a 12-hour interval.
To assess the impact of each compound on immune cells in vivo, the spleens of mice treated with each compound were harvested, and cells were extracted, and cells were suspended in MACS buffer (2 mM EDTA, 0.5% FBS, 137 mM NaCl, 2.7 mM KCl, 10 mM Na2HPO4, 1.8 mM KH2PO4, Miltenyi Biotech.). For flow cytometry analysis, each mouse's splenocytes were aliquoted at 5×10^5 cells per FACS tube (5 mL round tube, Falcon). To prevent non-specific antibody binding, each tube was treated with 1 μg/mL of anti-mouse CD16/CD32 (InVivoMAb) for 30 minutes, followed by centrifugation at 13,000 rpm for 5 minutes, and resuspended in 100 μL of MACS buffer. Subsequent experiments were conducted depending on the type of immune cells to be examined.
For B cells, each FACS tube was stained with 1 μg/mL of FITC-conjugated anti-B220 antibody (eBioscience™) at 4° C. for 30 minutes, followed by washing with 2 mL of MACS buffer. Subsequently, each tube was centrifuged at 15,000 rpm for 5 minutes, the supernatant was removed, and the precipitated cells were fixed using 200 μL of 4% paraformaldehyde solution.
For T cells, each FACS tube was stained with 1 μg/mL of PerCP-Cy5.5-conjugated anti-CD3 antibody (Biolegend), FITC-conjugated anti-CD8 antibody (eBioscience™) and Cy7-conjugated anti-CD4 antibody (eBioscience™) at 4° C. for 30 minutes, followed by washing with 2 mL of MACS buffer. Subsequently, each tube was centrifuged at 15,000 rpm for 5 minutes, the supernatant was removed, and the precipitated cells were fixed using 200 μL of 4% paraformaldehyde solution.
For macrophages, each FACS tube was stained with 1 μg/mL of FITC-conjugated anti-CD11b antibody (eBioscience™) at 4° C. for 30 minutes, followed by washing with 2 mL of MACS buffer. Subsequently, each tube was centrifuged at 15,000 rpm for 5 minutes, the supernatant was removed, and the precipitated cells were fixed using 200 μL of 4% paraformaldehyde solution.

Setting [2] is: flow cytometry, versus psoriasis groups, FIG. 10.

SMILES strings stand for the structures.

Consider `CCCCCCCCCCCCNC(=O)c1cccnc1N` [Compound 69], for which the “secretion of IL-2” value in the assay with spleen T cells (24 hours after treatment, FIG. 3) was “significant decrease”. Besides, in the assay with spleen T cells (72 hours after treatment), the “secretion of IFN-γ” value was “significant decrease”, the “secretion of IL-17A” value is given as “significant decrease” and the “secretion of TNF-α” value is given as “significant decrease”. Moreover, the “skin lesions (erythema, thickness, exfoliation of back skin)” value in assay [1] (14 days, FIG. 8) is “either minimally present or hardly observed”. The “hyperkeratosis, parakeratosis, irregular acanthosis, infiltration of inflammatory cells (H&E staining)” value in assay [1] (14 days, FIG. 9) was “either minimally present or hardly observed”. Also, in assay [1] (setting [2]), the “proportion of B cells in the spleen” value is given as “increase”, the “proportion of CD11b granulocytes in the spleen” value is “decreased” and the “proportion of T cells in the spleen” value is given as “increase”.

These data come from patent US20250296909A1, “NOVEL BENZENE DERIVATIVE AND IMMUNOSUPPRESSION-RELATED USE THEREOF” (PROVIBIO CO., LTD., priority 2021, published 2025).
